# How the values were obtained:
# NIDD STZ rats = assay: Streptozotocin-induced NIDD diabetic rats, eight-day oral treatment, plasma biological parameters; format: in vivo, male Wistar rats; details: for Glycaemia at D29 as percent of D21: values at D21 taken as 100%
# Description: 40 male Wistar rats (Charles River, Saint Aubin les Elbeuf, France), with an average weight of 280 g, are used in this experiment. The animals are housed for one week in a standardised animal house, the following parameters of which are controlled: The forty rats are made diabetic by IP administration of 50 mg/kg of streptozotocin dissolved in physiological saline (a single administration). […] For each rat, 100 μl of blood are collected by venepuncture in a caudal vein, onto heparin, at time D0 (before the administration of STZ), at time D21 (21 days after STZ, before the treatments) and at D29 (after eight days of treatment). The samples are immediately centrifuged (10 minutes at 4000 rpm) and the plasma is separated from the blood cells. The samples are frozen until the time of determination of the biological parameters. After thawing the plasma samples, the above parameters are determined by enzymatic methods, using a COBAS automated machine (Roche). The glycaemia is measured by the hexokinase method; the cholesterol by the enzymatic final Randox point method; the triglycerides by the GPO-PAP method; the lactic acid by the lactic dehydrogenase method. The circulating insulin is measured by radioimmunoassay using CEA kits. The efficacy of the treatments is evaluated between […] by a t test adapted to paired series (for each rat, the value at D21 relative to D29 serves as the control).
# NIDD rats, of STZ type = assay: Earlier study of glibenclamide 0.5 mg/kg daily in NIDD rats of STZ type; format: in vivo; details: daily dose of 0.5 mg/kg
# [1] = metformin 30 mg/kg/day group, D0 (before STZ)
# [2] = metformin 30 mg/kg/day group, D21 (21 days after STZ, before treatment)
# [3] = metformin (hydrochloride) 30 mg/kg/day orally in two doses, D29 (after eight days of treatment)
# [4] = glibenclamide 1 mg/kg/day group, D0 (before STZ)
# [5] = glibenclamide 1 mg/kg/day group, D21 (21 days after STZ, before treatment)
# [6] = glibenclamide 1 mg/kg/day orally in two doses, D29 (after eight days of treatment)
# [7] = glibenclamide 2 mg/kg/day group, D0 (before STZ)
# [8] = glibenclamide 2 mg/kg/day group, D21 (21 days after STZ, before treatment)
# [9] = glibenclamide 2 mg/kg/day orally in two doses, D29 (after eight days of treatment)
# [10] = glibenclamide higher dose 2 mg/kg/day, D29 vs D21
# [11] = glibenclamide low dose 1 mg/kg/day, D29 vs D21
compound,measurement,setting,value
"CN(C)C(=N)N=C(N)N [Metformin, metformin]",glycaemia at D29 (% of D21),NIDD STZ rats; Metformin 30 mg/kg/day,86%
same,Glycaemia at D29 as percent of D21,NIDD STZ rats; Metformin 30 mg/kg/day,86.03 +/− 4.29%
same,Cholesterol,NIDD STZ rats; [1],1.00 +/− 0.07 mM/l
same,Glycaemia,NIDD STZ rats; [1],6.38 +/− 0.23 mM/l
same,Insulinaemia,NIDD STZ rats; [1],12.8 +/− 0.2 μU/ml
same,Lactates,NIDD STZ rats; [1],2.47 +/− 0.15 mM/l
same,Triglycerides,NIDD STZ rats; [1],0.96 +/− 0.12 mM/l
same,Cholesterol,NIDD STZ rats; [2],1.57 +/− 0.08 mM/l
same,Glycaemia,NIDD STZ rats; [2],14.41 +/− 0.36 mM/l
same,Lactates,NIDD STZ rats; [2],2.53 +/− 0.09 mM/l
same,Triglycerides,NIDD STZ rats; [2],1.05 +/− 0.03 mM/l
same,Effect on lactates,"NIDD STZ rats; metformin 30 mg/kg/day, eight days",tendency to increase
same,Cholesterol,NIDD STZ rats; [3],1.48 +/− 0.06 mM/l
same,Glycaemia,NIDD STZ rats; [3],**12.35 +/− 0.49 mM/l
same,Insulinaemia,NIDD STZ rats; [3],17.3 +/− 0.7 μU/ml
same,Lactates,NIDD STZ rats; [3],*2.70 +/− 0.11 mM/l
same,Triglycerides,NIDD STZ rats; [3],0.96 +/− 0.05 mM/l
same,Decrease in glycaemia,"NIDD STZ rats; metformin alone 30 mg/kg/day, D29 vs D21",13.7%
glibenclamide,Activity of daily dose,"NIDD rats, of STZ type",inactive
same,Glycaemia at D29 as percent of D21,NIDD STZ rats; Glibenclamide 2 mg/kg/day,93.49 +/− 1.15%
same,Cholesterol,NIDD STZ rats; [4],1.03 +/− 0.04 mM/l
same,Glycaemia,NIDD STZ rats; [4],6.39 +/− 0.17 mM/l
same,Insulinaemia,NIDD STZ rats; [4],12.8 +/− 0.8 μU/ml
same,Lactates,NIDD STZ rats; [4],2.19 +/− 0.07 mM/l
same,Triglycerides,NIDD STZ rats; [4],0.87 +/− 0.05 mM/l
same,Cholesterol,NIDD STZ rats; [5],1.65 +/− 0.08 mM/l
same,Glycaemia,NIDD STZ rats; [5],14.22 +/− 0.65 mM/l
same,Insulinaemia,NIDD STZ rats; [5],16.7 +/− 0.8 μU/ml
same,Lactates,NIDD STZ rats; [5],2.59 +/− 0.10 mM/l
same,Triglycerides,NIDD STZ rats; [5],1.04 +/− 0.10 mM/l
same,Cholesterol,NIDD STZ rats; [6],1.42 +/− 0.08 mM/l
same,Glycaemia,NIDD STZ rats; [6],14.66 +/− 0.47 mM/l
same,Insulinaemia,NIDD STZ rats; [6],**1.92 +/− 0.8 μU/ml
same,Lactates,NIDD STZ rats; [6],**1.33 +/− 0.15 mM/l
same,Triglycerides,NIDD STZ rats; [6],1.04 +/− 0.10 mM/l
same,Cholesterol,NIDD STZ rats; [7],1.04 +/− 0.02 mM/l
same,Glycaemia,NIDD STZ rats; [7],6.49 +/− 0.13 mM/l
same,Insulinaemia,NIDD STZ rats; [7],12.7 +/− 0.6 μU/ml
same,Lactates,NIDD STZ rats; [7],2.33 +/− 0.12 mM/l
same,Triglycerides,NIDD STZ rats; [7],0.88 +/− 0.06 mM/l
same,Cholesterol,NIDD STZ rats; [8],1.49 +/− 0.04 mM/l
same,Glycaemia,NIDD STZ rats; [8],14.66 +/− 0.73 mM/l
same,Insulinaemia,NIDD STZ rats; [8],17.0 +/− 1.0 μU/ml
same,Lactates,NIDD STZ rats; [8],2.67 +/− 0.17 mM/l
same,Triglycerides,NIDD STZ rats; [8],1.01 +/− 0.05 mM/l
same,Cholesterol,NIDD STZ rats; [9],1.52 +/− 0.06 mM/l
same,Glycaemia,NIDD STZ rats; [9],**13.70 +/− 0.66 mM/l
same,Insulinaemia,NIDD STZ rats; [9],**21.0 +/− 1.4 μU/ml
same,Lactates,NIDD STZ rats; [9],**1.38 +/− 0.13 mM/l
same,Triglycerides,NIDD STZ rats; [9],0.93 +/− 0.04 mM/l
same,Glycaemia,"NIDD STZ rats; glibenclamide 2 mg/kg/day orally in two doses, D29 (after eight days of treatment), listed as glibenclamide",13.70 +/− 0.66 mM/l
same,Decrease in glycaemia,"NIDD STZ rats; glibenclamide alone 2 mg/kg/day, D29 vs D21",6.51%
same,Effect on insulinaemia,NIDD STZ rats; [10],still higher on average
same,Effect on lactate levels,NIDD STZ rats; [10],significantly reduced
same,Effect on glycaemia,"NIDD STZ rats; glibenclamide higher dose 2 mg/kg/day, D29 vs D21, paired t test",significantly decreases
same,Effect on glycaemia,NIDD STZ rats; [11],does not modify
same,Effect on insulinaemia,NIDD STZ rats; [11],significant increase
same,Effect on level of circulating lactates,NIDD STZ rats; [11],decrease
same,Minimum active dose,"NIDD STZ rats; orally in two doses, eight days, NIDD STZ rats",2 mg/kg/day

# Source: patent US20040039031A1, “Novel pharmaceutical compositions having an antidiabetic action, and process for their preparation” (priority 2000, published 2004)
